Active and inactive are the calls of the source. The calls are words filed in the database; no cut-off is given here.
Legend:
[1] = Cytotoxicity against human MCF7 cells assessed as cell survival at 10 uM after 48 hrs by MTT assay relative to control; assay type: cell-based; details: read-out: Survival
[2] = system: P-gp; experiment: Therapeutic index, ratio of IC50 for HEK293 cells to EC50 for inhibition of P-gp in human MCF7/ADR cells assessed as potentiation of doxorubicin-induced cytotoxicity; assay type: toxicity, cell-based; details: HEK293 cells (IC50) and MCF7/ADR cells (EC50)
[3] = Cytotoxicity against human MCF7/ADR cells assessed as cell survival at 10 uM after 48 hrs by MTT assay relative to control; assay type: cell-based; details: MCF7/ADR cells (NCI/ADR-RES), read-out: Survival
[4] = system: HEK293; experiment: Cytotoxicity against HEK293 cells after 48 hrs by MTT assay; assay type: cell-based; details: Homo sapiens, HEK293, 48 h
[5] = system: NCI/ADR-RES; experiment: Cytotoxicity against human MCF7/ADR cells after 48 hrs by MTT assay; assay type: cell-based
[6] = Inhibition of P-gp in human MCF7/ADR cells assessed as potentiation of doxorubicin-induced cytotoxicity after 48 hrs by MTT assay; assay type: cell-based; details: NCI/ADR-RES
[7] = organism: Homo sapiens; experiment: Inhibition of P-gp in human MCF7/ADR cells assessed as potentiation of doxorubicin-induced cytotoxicity at 10 uM after 48 hrs by MTT assay relative to control; assay type: cell-based
[8] = system: MCF7; experiment: Cytotoxicity against human MCF7 cells after 48 hrs by MTT assay; assay type: cell-based; details: MCF7, 48 h
[9] = system: NCI/ADR-RES; experiment: Inhibition of P-gp expression in human MCF7/ADR cells at 5 to 10 uM after 48 hrs by Western blot analysis; assay type: functional, cell-based
[10] = organism: Homo sapiens; experiment: Inhibition of P-gp mediated efflux in human MCF7/ADR cells after 4 hrs by Rh123 dye-based flow cytometric method; assay type: cell-based
[11] = organism: Homo sapiens; experiment: Stimulation of human Pgp ATPase activity expressed in cell membranes at 50 uM after 1 hr by P-gp Glo assay relative to control
[12] = Competitive inhibition of P-gp in human MCF7/ADR cells after 150 mins in presence of doxorubicin by Lineweaver-Burk plot analysis; assay type: cell-based
[13] = organism: Homo sapiens; experiment: Inhibition of P-gp in human MCF7/ADR cells assessed as potentiation of vincristine-induced cytotoxicity at 10 uM after 48 hrs by MTT assay relative to control; assay type: cell-based
[14] = organism: Homo sapiens; experiment: Inhibition of P-gp in human MCF7/ADR cells assessed as concentration required to restore doxorubicin accumulation in cells after 150 mins by fluorescence assay relative to MCF7 cells; assay type: cell-based
[15] = Competitive inhibition of P-gp in human MCF7/ADR cells after 150 mins in presence of doxorubicin by Dixon plot analysis; assay type: cell-based
[16] = organism: Homo sapiens; experiment: Stimulation of human Pgp ATPase activity expressed in cell membranes at 2.5 uM after 1 hr by P-gp Glo assay relative to control
[17] = organism: Homo sapiens; experiment: Inhibition of P-gp in human MCF7/ADR cells assessed as potentiation of doxorubicin-induced cytotoxicity at 1 uM preincubated with cells followed by compound washout and subsequent incubation for 6 hrs prior to addition of doxorubicin and measured after 48 hrs by MTT assay relative to control; assay type: cell-based
[18] = organism: Homo sapiens; experiment: Inhibition of P-gp in human MCF7/ADR cells assessed as increase in doxorubicin accumulation in cells after 150 mins by fluorescence assay; assay type: cell-based
[19] = organism: Homo sapiens; experiment: Inhibition of P-gp in human MCF7/ADR cells assessed as increase in doxorubicin accumulation in cells up to 20 uM after 150 mins by fluorescence assay relative to control; assay type: cell-based
[20] = organism: Homo sapiens; experiment: Inhibition of P-gp in human MCF7/ADR cells assessed as potentiation of docetaxel-induced cytotoxicity at 10 uM after 48 hrs by MTT assay relative to control; assay type: cell-based

| SMILES | viability at 48 h, 10 µM [1] [%] | selectivity ratio [2] | viability at 48 h, 10 µM [3] [%] | IC50 [4] [µM] | IC50 [5] [µM] | EC50 [6] [µM] | fold change (FC) [7] | IC50 [8] [µM] | inhibition [9] | inhibition [10] | fold change (FC) [11] | Ki [12] [µM] | fold change (FC) [13] | Activity [14] [µM] | Ki [15] [µM] | fold change (FC) [16] | fold change (FC) [17] | inhibition [18] | fold change (FC) [19] | fold change (FC) [20] |
| --- | --- | --- | --- | --- | --- | --- | --- | --- | --- | --- | --- | --- | --- | --- | --- | --- | --- | --- | --- | --- |
| CC(=O)O[C@H]1[C@@H](OC(C)=O)C(C)(C)/C=C/[C@H](C)[C@@H](OC(C)=O)[C@@]2(O)C[C@@](C)(OC(C)=O)[C@@H]3OC(=O)CC[C@@](O)([C@@H]1OC(=O)C(C)C)[C@H](OC(=O)c1ccccc1)[C@@H]32 | 93.2 | 368 | > 100 | 53.4 | 93 | 0.145 | 17.1 | 83.2 | – | – | – | – | – | – | – | – | – | – | – | – |
| C=C1[C@H](OC(=O)C(C)C)[C@@H](OC(C)=O)[C@@H](OC(C)=O)C(C)(C)/C=C/[C@H](C)[C@H](OC(=O)c2ccccc2)[C@@]2(O)C[C@@](C)(OC(C)=O)[C@H](OC(C)=O)[C@@H]2[C@H]1OC(=O)C(C)C | 94.3 | – | 94.5 | – | > 100 | – | 10 | > 100 | – | – | – | – | – | – | – | – | – | – | – | – |
| C=C1[C@H](OC(=O)C(C)C)[C@@H](OC(C)=O)[C@@H](OC(C)=O)C(C)(C)/C=C/[C@H](C)[C@H](OC(=O)c2ccccc2)[C@@]2(O)C[C@@](C)(OC(C)=O)[C@H](OC(C)=O)[C@@H]2[C@H]1OC(=O)C(C)CC (stereo partly drawn) | 91.4 | 1060 | 91.8 | 98.2 | > 100 | 0.0927 | 36.8 | > 100 | inactive | Dose-dependent effect | 2.22 | 0.49 | 2.17 | 10 | 0.5 | 1.34 | 1.43 | Dose-dependent effect | 2.15 | 3.42 |
| C=C1[C@H](OC(=O)C(C)C)[C@@H](OC(C)=O)[C@@H](OC(C)=O)C(C)(C)/C=C/[C@H](C)C(=O)[C@@]2(O)C[C@@](C)(OC(C)=O)[C@H](OC(C)=O)[C@@H]2[C@H]1OC(=O)c1ccccc1 | 92.4 | – | 90.3 | – | > 100 | – | 9.29 | > 100 | – | – | – | – | – | – | – | – | – | – | – | – |
| C=C1[C@H](OC(=O)C(C)C)[C@@H](OC(C)=O)[C@@H](OC(C)=O)C(C)(C)/C=C/[C@H](C)[C@H](OC(=O)c2ccccc2)[C@@]2(O)C[C@@](C)(OC(C)=O)[C@H](OC(C)=O)[C@@H]2[C@H]1OC(=O)c1ccccc1 | 93.2 | 661 | 97.7 | 61.4 | > 100 | 0.0929 | 20.9 | 53.9 | – | – | – | – | – | – | – | – | – | – | – | – |
| C=C1[C@@H](OC(C)=O)[C@@H]2[C@H](OC(=O)c3ccccc3)[C@](C)(OC(=O)C(C)C)C[C@]2(OC(C)=O)C(=O)[C@H](C)/C=C/C(C)(C)[C@H](OC(C)=O)[C@H](OC(C)=O)[C@H]1OC(=O)C(C)C | 92.3 | 196 | 91.2 | 38.5 | > 100 | 0.196 | 11.2 | > 100 | – | – | – | – | – | – | – | – | – | – | – | – |
| COc1ccc(CCN(C)CCCC(C#N)(c2ccc(OC)c(OC)c2)C(C)C)cc1OC (stereo not drawn) | 83.4 | – | 90.2 | – | – | – | – | 48.9 | – | – | – | 2.88 | – | 40 | 2.92 | – | – | Dose-dependent effect | – | – |
| C=C1[C@H](OC(=O)C(C)C)[C@@H](OC(C)=O)[C@@H](OC(C)=O)C(C)(C)/C=C/[C@H](C)[C@H](O)[C@@]2(O)C[C@@](C)(OC(=O)C(C)C)[C@H](OC(C)=O)[C@@H]2[C@H]1OC(=O)c1ccccc1 | 88 | 512 | 91.1 | 63.8 | > 100 | 0.124 | 20.6 | > 100 | – | – | – | – | – | – | – | – | – | – | – | – |
| CC(=O)O[C@H]1[C@@H](OC(C)=O)C(C)(C)/C=C/[C@H](C)[C@H](OC(C)=O)[C@@]2(O)C[C@@](C)(OC(C)=O)[C@H](O)[C@@H]2[C@H]2OC(=O)CC[C@@]2(OC(=O)c2ccccc2)[C@@H]1OC(=O)C(C)C | 98.5 | 346 | > 100 | 43.1 | > 100 | 0.125 | 13 | 64.8 | – | – | – | – | – | – | – | – | – | – | – | – |
| C=C1[C@H](OC(=O)C(C)C)[C@@H](OC(C)=O)[C@@H](OC(C)=O)C(C)(C)/C=C/[C@H](C)[C@H](OC(=O)c2ccccc2)[C@@]2(O)C[C@@](C)(OC(C)=O)[C@H](OC(C)=O)[C@@H]2[C@H]1OC(=O)CC | 93.3 | 378 | 92.8 | 67.2 | > 100 | 0.178 | 12.5 | > 100 | – | – | – | – | – | – | – | – | – | – | – | – |
| C=C1[C@H](OC(C)=O)[C@H]2[C@@H](OC(C)=O)[C@@H](C)C[C@]2(OC(C)=O)C(=O)[C@@H](C)/C=C/C(C)(C)C(=O)[C@H](OC(C)=O)[C@H]1OC(=O)CC | 85.6 | – | 94.8 | – | > 100 | – | 6.65 | > 100 | – | – | – | – | – | – | – | – | – | – | – | – |
| CC(=O)O[C@H]1[C@@H](OC(C)=O)C(C)(C)[C@@H]2O[C@H]2[C@H](C)[C@H](OC(C)=O)[C@]2(O)[C@H]3[C@@H](OC(=O)c4ccccc4)[C@@](O)(CCC(=O)O[C@H]3[C@](C)(OC(C)=O)[C@H]2OC(C)=O)[C@@H]1OC(C)=O | 94.9 | – | 93 | – | > 100 | – | 0.69 | > 100 | – | – | – | – | – | – | – | – | – | – | – | – |
| C=C1[C@H](OC(=O)C(C)C)[C@@H](OC(C)=O)[C@@H](OC(C)=O)C(C)(C)/C=C/[C@H](C)[C@H](OC(C)=O)[C@@]2(O)C[C@@](C)(OC(C)=O)[C@H](OC(C)=O)[C@@H]2[C@H]1OC(=O)c1ccccc1 | 94.6 | – | > 100 | – | > 100 | – | 10.2 | > 100 | – | – | – | – | – | – | – | – | – | – | – | – |
| C=C1CCC(=O)C(C)(C)/C=C/[C@H](C)C(=O)[C@@]2(OC(C)=O)C[C@H](C)[C@H](O)[C@@H]2[C@H]1OC(=O)c1ccccc1 | 95.6 | – | 90.4 | – | 90.9 | – | 3.52 | 70.9 | – | – | – | – | – | – | – | – | – | – | – | – |
| C=C1[C@H](OC(=O)CC)[C@@H](OC(C)=O)[C@@H](OC(C)=O)C(C)(C)/C=C/[C@H](C)[C@H](OC(=O)c2ccccc2)[C@@]2(O)C[C@@](C)(OC(C)=O)[C@H](OC(C)=O)[C@@H]2[C@H]1OC(=O)C(C)C | 83.3 | 438 | 92.5 | 59.4 | > 100 | 0.136 | 13.5 | > 100 | – | – | – | – | – | – | – | – | – | – | – | – |
| C=C1[C@H](OC(C)=O)[C@H]2[C@@H](OC(C)=O)[C@@H](C)C[C@]2(OC(C)=O)C(=O)[C@@H](C)/C=C/C(C)(C)C(=O)[C@H](OC(C)=O)[C@H]1OC(=O)C(C)C | 91.9 | – | 96.2 | – | > 100 | – | 9.99 | > 100 | – | – | – | – | – | – | – | – | – | – | – | – |

From ChEMBL document CHEMBL4145504, “Jatrophane diterpenoids from Euphorbia sororia as potent modulators against P-glycoprotein-based multidrug resistance” (Eur J Med Chem, 2018)
